Literature values as cited in patent publication US20120220783A1, “SALTS OF SUNITINIB” (RANBAXY LABORATORIES LIMITED, priority 2009, published 2012).

Conditions: crystalline form, statement of WO 2009/104021

SMILES: CCN(CC)CCNC(=O)c1c(C)[nH]c(/C=C2\C(=O)Nc3ccc(F)cc32)c1C.O=C(O)C[C@H](O)C(=O)O [Form II of sunitinib L-malate, butanedioic acid, hydroxy-, (2S)-, compound with N-[2-(diethylamino)ethyl]-5-[(Z)-(5-fluoro-1,2-dihydro-2-oxo-3H-indol-3-ylidine)methyl]-2,4-dimethyl-1H-pyrrole-3-carboxamide (1:1)]
- thermodynamic stability / form conversion (appears to readily convert to Form I): thermodynamically unstable
- hygroscopicity: hygroscopic
